What was measured:
Assay type in all cases: cell-based
dengue virus (DENV) = assay: microbe, parasite or virus in culture; conditions: Dengue virus, Vero, 120 h, read-out: Percent viral inhibition DENY
[1] = test system: Chikungunya virus (CHIKV); assay: microbe, parasite or virus in culture; conditions: Chikungunya virus, Vero, 48 h, read-out: Percent viral inhibition CHKV
Marburg virus (MARV) = assay: organism not typed; conditions: Vero, 72 h, read-out: Percent viral inhibition MARV

| SMILES | inhibition at 1 µM (dengue virus (DENV)) | inhibition at 1 µM [1] | inhibition at 1 µM (Marburg virus (MARV)) |
| --- | --- | --- | --- |
| CN1CCN(c2ncc(Oc3cc(CN4CCO[C@H](CO)CC4)cc(-c4cc(Cl)cc(Cl)c4)n3)cn2)CC1 [Example 330, (S)-(4-((2-(3,5-dichlorophenyl)-6-((2-(4-methylpiperazin-1-yl)pyrimidin-5-yl)oxy)pyridin-4-yl)methyl)-1,4-oxazepan-7-yl)methanol] | 26.4% | 24.6% | 58.7% |
| CN1CCN(c2ncc(Oc3cc(CN4CCC(P(C)(C)=O)CC4)cc(-c4cc(Cl)cc(Cl)c4)n3)cn2)CC1 [Example 331, (1-((2-(3,5-dichlorophenyl)-6-((2-(4-methylpiperazin-1-yl)pyrimidin-5-yl)oxy)pyridin-4-yl)methyl)piperidin-4-yl)dimethylphosphineoxide] | 56.5% | 22.6% | 69.3% |
| O=C(O)CC1CCN(Cc2cc(Oc3cnc(N4CCN5CCC4C5)nc3)nc(-c3cc(Cl)cc(Cl)c3)c2)CC1 (stereo not drawn) [Example 334, 2-(1-((2-((2-(1,4-diazabicyclo[3.2.1]octan-4-yl)pyrimidin-5-yl)oxy)-6-(3,5-dichlorophenyl)pyridin-4-yl)methyl)piperidin-4-yl)acetic acid] | 20.8% | 29.6% | 41.4% |
| O=C(O)C1[C@H]2CCN(Cc3cc(Oc4cnc(N5CCN6CCC5C6)nc4)nc(-c4cc(Cl)cc(Cl)c4)c3)CC[C@@H]12 (stereo partly drawn) [Example 337, (1R,7S,8r)-4-((2-((2-(1,4-diazabicyclo[3.2.1]octan-4-yl)pyrimidin-5-yl)oxy)-6-(3,5-dichlorophenyl)pyridin-4-yl)methyl)-4-azabicyclo[5.1.0] octane-8-carboxylic acid] | 0% | 15.9% | 37.6% |
| FC1CCN(Cc2cc(Oc3cnc(N4CCN5CCC4C5)nc3)nc(-c3cc(Cl)cc(Cl)c3)c2)CC1 (stereo not drawn) [Example 338, 4-(5-((6-(3,5-dichlorophenyl)-4-((4-fluoropiperidin-1-yl)methyl)pyridin-2-yl)oxy)pyrimidin-2-yl)-1,4-diazabicyclo[3.2.1]octane] | 55.4% | 19.3% | 12.2% |
| CN1CCN(c2cnc(Oc3cc(CN4CCC(CC(=O)O)CC4)cc(-c4cc(Cl)cc(Cl)c4)n3)cn2)CC1 [Example 339, 2-(1-((2-(3,5-dichlorophenyl)-6-((5-(4-methylpiperazin-1-yl)pyrazin-2-yl)oxy)pyridin-4-yl)methyl)piperidin-4-yl)acetic acid] | 0% | 23.6% | 52.1% |
| CC(CCN1CCN(c2cnc(Oc3cc(CN4CCC(CCO)CC4)cc(-c4cc(Cl)cc(Cl)c4)n3)cn2)CC1)C(=O)O (stereo not drawn) [Example 341, 4-(4-(5-((6-(3,5-dichlorophenyl)-4-((4-(2-hydroxyethyl)piperidin-1-yl)methyl)pyridin-2-yl)oxy)pyrazin-2-yl)piperazin-1-yl)-2-methylbutanoic acid] | 31.2% | 29.2% | 50.5% |
| CC(C)(O)CN1CCN(c2cnc(Oc3cc(CN4CCC(CC(=O)O)CC4)cc(-c4cc(Cl)cc(Cl)c4)n3)cn2)CC1 [Example 343, 2-(1-((2-(3,5-dichlorophenyl)-6-((5-(4-(2-hydroxy-2-methylpropyl)piperazin-1-yl)pyrazin-2-yl)oxy)pyridin-4-yl)methyl)piperidin-4-yl)acetic acid] | 28.6% | 35.7% | 51% |
| O=C(O)CC1CCN(Cc2cc(Oc3ccc(N4CCN5CCC4C5)nn3)nc(-c3cc(Cl)cc(Cl)c3)c2)CC1 (stereo not drawn) [Example 344, 2-(1-((2-((6-(1,4-diazabicyclo[3.2.1]octan-4-yl)pyridazin-3-yl)oxy)-6-(3,5-dichlorophenyl)pyridin-4-yl)methyl)piperidin-4-yl)acetic acid] | 77.9% | 26.6% | 43.5% |
| CCN1CCCN(c2cnc(Oc3cc(CN4CCC(CC(=O)O)CC4)cc(-c4cc(Cl)cc(Cl)c4)n3)cn2)CC1 [Example 345, 2-(1-((2-(3,5-dichlorophenyl)-6-((5-(4-ethyl-1,4-diazepan-1-yl)pyrazin-2-yl)oxy)pyridin-4-yl)methyl)piperidin-4-yl)acetic acid] | 44% | 22.1% | 57% |
| CN1C[C@@H]2C[C@H]1CN2c1cnc(Oc2cc(CN3CCC(CC(=O)O)CC3)cc(-c3cc(Cl)cc(Cl)c3)n2)cn1 [Example 346, 2-(1-((2-(3,5-dichlorophenyl)-6-((5-((1S,4S)-5-methyl-2,5-diazabicyclo[2.2.1]heptan-2-yl)pyrazin-2-yl)oxy)pyridin-4-yl)methyl)piperidin-4-yl)acetic acid] | 54.6% | 9.36% | 56.8% |
| CC(C)N1CCN(c2cnc(Oc3cc(CN4CCC(CC(=O)O)CC4)cc(-c4cc(Cl)cc(Cl)c4)n3)cn2)CC1 [Example 347, 2-(1-((2-(3,5-dichlorophenyl)-6-((5-(4-isopropylpiperazin-1-yl)pyrazin-2-yl)oxy)pyridin-4-yl)methyl)piperidin-4-yl)acetic acid] | 56.8% | 24.9% | 57.7% |
| O=C(O)CC1CCN(Cc2cc(Oc3cnc(N4CCN5CCC4C5)cn3)nc(-c3cc(Cl)cc(Cl)c3)c2)CC1 (stereo not drawn) [Example 348, 2-(1-((2-((5-(1,4-diazabicyclo[3.2.1]octan-4-yl)pyrazin-2-yl)oxy)-6-(3,5-dichlorophenyl)pyridin-4-yl)methyl)piperidin-4-yl)acetic acid] | 55.8% | 35.8% | 46.6% |
| CC(O)CCN1CCN(c2cnc(Oc3cc(CN4CCC(CC(=O)O)CC4)cc(-c4cc(Cl)cc(Cl)c4)n3)cn2)CC1 (stereo not drawn) [Example 349, 2-(1-((2-(3,5-dichlorophenyl)-6-((5-(4-(3-hydroxybutyl)piperazin-1-yl)pyrazin-2-yl)oxy)pyridin-4-yl)methyl)piperidin-4-yl)acetic acid] | 57.6% | 26.2% | 64.5% |
| CN1CCN(c2cnc(Oc3cc(CN4CCC(CCO)CC4)cc(-c4cc(Cl)cc(Cl)c4)n3)cn2)CC1 [Example 350, 2-(1-((2-(3,5-dichlorophenyl)-6-((5-(4-methylpiperazin-1-yl)pyrazin-2-yl)oxy)pyridin-4-yl)methyl)piperidin-4-yl)ethanol] | 22.8% | 0% | 29.9% |
| CC(CC1CCN(Cc2cc(Oc3cnc(N4CCCN(C)CC4)cn3)nc(-c3cc(Cl)cc(Cl)c3)c2)CC1)C(=O)O (stereo not drawn) [Example 351, 3-(1-((2-(3,5-dichlorophenyl)-6-((5-(4-methyl-1,4-diazepan-1-yl)pyrazin-2-yl)oxy)pyridin-4-yl)methyl)piperidin-4-yl)-2-methylpropanoic acid] | 42.8% | 22.7% | 60.4% |
| CN1C2CC1CN(c1cnc(Oc3cc(CN4CCC(CC(=O)O)CC4)cc(-c4cc(Cl)cc(Cl)c4)n3)cn1)C2 [Example 352, 2-(1-((2-(3,5-dichlorophenyl)-6-((5-(6-methyl-3,6-diazabicyclo[3.1.l]heptan-3-yl)pyrazin-2-yl)oxy)pyridin-4-yl)methyl)piperidin-4-yl)acetic acid] | 13.1% | 31% | 47.9% |
| CN1CCN(c2cnc(Oc3cc(CN4CCC(OC5(C(=O)O)CC5)CC4)cc(-c4cc(Cl)cc(Cl)c4)n3)cn2)CC1 [Example 353, 1-((1-((2-(3,5-dichlorophenyl)-6-((5-(4-methylpiperazin-1-yl)pyrazin-2-yl)oxy)pyridin-4-yl)methyl)piperidin-4-yl)oxy)cyclopropanecarboxylic acid] | 51.3% | 16.6% | 35.4% |
| CS(=O)(=O)CCCN1CCN(c2cnc(Oc3cc(CN4CCC(CC(=O)O)CC4)cc(-c4cc(Cl)cc(Cl)c4)n3)cn2)CC1 [Example 354, 2-(1-((2-(3,5-dichlorophenyl)-6-((5-(4-(3-(methylsulfonyl)propyl)piperazin-1-yl)pyrazin-2-yl)oxy)pyridin-4-yl)methyl)piperidin-4-yl)acetic acid] | 40.8% | 17.2% | 45.2% |
| CCN1CCCN(c2ccc(Oc3cc(CN4CCC(CC(=O)O)CC4)cc(-c4cc(Cl)cc(Cl)c4)n3)nn2)CC1 [Example 355, 2-(1-((2-(3,5-dichlorophenyl)-6-((6-(4-ethyl-1,4-diazepan-1-yl)pyridazin-3-yl)oxy)pyridin-4-yl)methyl)piperidin-4-yl)acetic acid] | 30.2% | 22% | 52.4% |
| CN1CCCN(c2ccc(Oc3cc(CN4CCC(CC(=O)O)CC4)cc(-c4cc(Cl)cc(Cl)c4)n3)nn2)CC1 [Example 356, 2-(1-((2-(3,5-dichlorophenyl)-6-((6-(4-methyl-1,4-diazepan-1-yl)pyridazin-3-yl)oxy)pyridin-4-yl)methyl)piperidin-4-yl)acetic acid] | 49.3% | 30.8% | 54.3% |
| CN1C[C@@H]2C[C@H]1CN2c1ccc(Oc2cc(CN3CCC(CC(=O)O)CC3)cc(-c3cc(Cl)cc(Cl)c3)n2)nn1 [Example 357, 2-(1-((2-(3,5-dichlorophenyl)-6-((6-((1S,4S)-5-methyl-2,5-diazabicyclo[2.2.1]heptan-2-yl)pyridazin-3-yl)oxy)pyridin-4-yl)methyl)piperidin-4-yl)acetic acid] | 61.2% | 38.6% | 100% |
| CCN1CCN(c2ccc(Oc3cc(CN4CCC(CC(=O)O)CC4)cc(-c4cc(Cl)cc(Cl)c4)n3)nn2)CC1 [Example 358, 2-(1-((2-(3,5-dichlorophenyl)-6-((6-(4-ethylpiperazin-1-yl)pyridazin-3-yl)oxy)pyridin-4-yl)methyl)piperidin-4-yl)acetic acid] | 67.1% | 20.4% | 49% |
